One data set in a line: solubility in water. It is filed as physicochemical.
A short description of data set [1]: amount of formalin in triethylene glycol stored at 50° C., by colorimetry (Experimental Example 1). The conditions noted are these: 50% aqueous triethylene glycol; for amount of formalin, After 3 Days / amount of formalin, After 6 Days / amount of formalin, Just After Preparation: 2 mg antioxidant in 10 g. As for the experimental part: As the example of the present invention, 2 mg of the sodium salt of phosphoric acid diester obtained in Preparation Example 2 was dissolved in 10 g of a 50% aqueous solution of triethylene glycol (supplied by Nakarai Chemicals Co., Ltd.), the solution was stored in a thermostat tank maintained at 50° C. for 3 or 6 days, and the amount of formalin was measured by colorimetry.
Triethylene glycol free of any antioxidant as Comparison Example 1, triethylene glycol in which ascorbic acid was added in the same amount as in the Example of the present invention, as Comparison Example 2, and triethylene glycol in which mixed tocopherol was incorporated in the same amount as in the example of the present invention, as Comparison Example 3, were tested in the same manner as described above.

A short description of data set [2]: smell evaluation of stored triethylene glycol samples by three experts (Experimental Example 2). Set-up: key: +: no smell of rancidity; -: strong smell of rancidity. Conditions: samples of Experimental Example 1 after 6 days storage. As for the experimental part:
The sample of the Example of the present invention and Comparison Examples 1, 2, and 3 in Experimental Example 1, obtained after 6 days storage, were evaluated with respect to the smell thereof.
The evaluation was made by three experts.

Data set [3] can be described thus: anti-oxidizing effect against oxidation of phospholipid/ethanol mixed micell by Fe^2+.ascorbic acid (Experimental Example 3). Type of data set: biochemical. The conditions noted are these: 4.0 × 10^-5 M. As for the experimental part:
The anti-oxidizing effect of the sodium salt of phosphoric acid diester prepared in Preparation Example 2 against the oxidation of a phospholipid (egg lecitin)/ethanol mixed micell by Fe^2+.ascorbic acid was examined.
About 78 mg of egg lecitin was dissolved in 2 ml of ethanol, and 5 mM HEPES buffer solution (pH 7.2) was gradually added to the solution with ice cooling under the application of an ultrasonic wave (50 W) to form a suspension, until the total amount was 100 ml. Then, 200 μl of a 2.6×10^-4 M aqueous solution of the sodium salt of phosphoric acid diester was added to 1000 μl of the so-formed liquid. Then 50 μl of a 5.0×10^-5 M aqueous solution of sodium ascorbate and 50 μl of a 2.5×10^-6 M aqueous solution of ferrous sulfate were added to the mixture, and oxidation was carried out for 15 minutes in a water bath at 25° C. After the reaction, 50 μl of a 0.1% solution of hydroquinone in ethanol was immediately added to stop the reaction. […] After cooling, the absorbance at 450 to 600 nm was measured by a spectrophotometer. The increase of the absorption in the vicinity of about 530 to about 540 nm in the obtained curve was measured. The inhibition ratio was determined by comparing the obtained result with the result obtained at the blank test not using the test liquid.

For data set [4] the following is noted: cited from earlier work.

Where a name gives a salt, the structure may show the parent alone.

Turning to `Cc1c(C)c2c(c(C)c1OP(=O)(O)OC1=C(O)[C@@H]([C@@H](O)CO)OC1=O)CCC(C)(CCCC(C)CCCC(C)CCCC(C)C)O2` (mixture of isomers) [phosphoric acid diester, L-ascorbic DL-α-tocopherol phosphate], the “solubility in water (in words)” value in “solubility in water” is given as “freely dissolved in water”.
For `Cc1c(C)c2c(c(C)c1OP(=O)(O)OC1=C(O)[C@@H]([C@@H](O)CO)OC1=O)CCC(C)(CCCC(C)CCCC(C)CCCC(C)C)O2` (mixture of isomers) [potassium salt, potassium L-ascorbic DL-α-tocopherol phosphate], the “solubility in water (in words)” value in the data set “solubility in water” is on record as “soluble in water”.
Turning to `Cc1c(C)c2c(c(C)c1OP(=O)(O)OC1=C(O)[C@@H]([C@@H](O)CO)OC1=O)CCC(C)(CCCC(C)CCCC(C)CCCC(C)C)O2` (mixture of isomers) [sodium salt of phosphoric acid diester, sodium L-ascorbic DL-α-tocopherol phoschate], in data set [1] (50° C.), the “amount of formalin, After 3 Days” value was 1.7 and the “amount of formalin, After 6 Days” value was 15.5. Also, the “amount of formalin, Just After Preparation” value in data set [1] is given as 0.1. In data set [1] (50° C., 3 or 6 days), the “anti-oxidizing effect compared with ascorbic acid or tocopherol alone (in words)” value is given as “much higher anti-oxidizing effect”. For the same compound, the “Judgement of Smell” value in data set [2] was “+”. Moreover, the “inhibition of the oxidation (in words)” value in data set [3] is recorded as “substantially completely inhibited the oxidation”. Also, in data set [3] (oxidation 15 minutes at 25° C., pH 7.2 HEPES, TBA absorbance about 530 to about 540 nm, 40 µM), the “Inhibition Ratio” value was 99.1%. Further, in “solubility in water”, the “solubility in water (in words)” value was “soluble in water”.
In the case of `O=C1O[C@H]([C@@H](O)CO)C(O)=C1O` [ascorbic acid, reference compound], in data set [1] (50° C.), the “amount of formalin, After 3 Days” value was 39.6 and the “amount of formalin, After 6 Days” value was 111.7. The “amount of formalin, Just After Preparation” value in data set [1] was determined as 0.1. In data set [2], the “Judgement of Smell” value was “-”.
As for `Cc1c(C)c2c(c(C)c1OP(=O)(O)OC1=C(O)[C@@H]([C@@H](O)CO)OC1=O)CCC(C)(CCCC(C)CCCC(C)CCCC(C)C)O2` (stereo partly shown) [calcium salt], the “solubility in water (in words)” value in “solubility in water” was “insoluble in water”.
Turning to tocopherol, in data set [4], the “solubility of tocopherol in water (in words)” value is recorded as “not soluble in water”.
